Measurements from patent publication US6548494B1, “Tricyclic inhibitors of poly(ADP-ribose) polymerases” (Agouron Pharmaceuticals, Inc., priority 1999, dated 2003).
Several values for one entry are separate records, joined by “and”; a condition that tells them apart may be missing. Identical values can stand only once. Like-named read-outs stand apart in the source and are kept apart here.

Tests used:
[1] = target: purified PARP protein (Homo sapiens, UniProt P09874); test: PARP enzyme inhibition assay; type: biochemical; details: 20 nM purified PARP (5 nM for tight-binding inhibitors), 500 μM NAD+, 25° C., several values in one cell = repeat determinations
[2] = read-out: Inhibition Constant Ki

purified PARP protein, sequence (P09874 whole entry): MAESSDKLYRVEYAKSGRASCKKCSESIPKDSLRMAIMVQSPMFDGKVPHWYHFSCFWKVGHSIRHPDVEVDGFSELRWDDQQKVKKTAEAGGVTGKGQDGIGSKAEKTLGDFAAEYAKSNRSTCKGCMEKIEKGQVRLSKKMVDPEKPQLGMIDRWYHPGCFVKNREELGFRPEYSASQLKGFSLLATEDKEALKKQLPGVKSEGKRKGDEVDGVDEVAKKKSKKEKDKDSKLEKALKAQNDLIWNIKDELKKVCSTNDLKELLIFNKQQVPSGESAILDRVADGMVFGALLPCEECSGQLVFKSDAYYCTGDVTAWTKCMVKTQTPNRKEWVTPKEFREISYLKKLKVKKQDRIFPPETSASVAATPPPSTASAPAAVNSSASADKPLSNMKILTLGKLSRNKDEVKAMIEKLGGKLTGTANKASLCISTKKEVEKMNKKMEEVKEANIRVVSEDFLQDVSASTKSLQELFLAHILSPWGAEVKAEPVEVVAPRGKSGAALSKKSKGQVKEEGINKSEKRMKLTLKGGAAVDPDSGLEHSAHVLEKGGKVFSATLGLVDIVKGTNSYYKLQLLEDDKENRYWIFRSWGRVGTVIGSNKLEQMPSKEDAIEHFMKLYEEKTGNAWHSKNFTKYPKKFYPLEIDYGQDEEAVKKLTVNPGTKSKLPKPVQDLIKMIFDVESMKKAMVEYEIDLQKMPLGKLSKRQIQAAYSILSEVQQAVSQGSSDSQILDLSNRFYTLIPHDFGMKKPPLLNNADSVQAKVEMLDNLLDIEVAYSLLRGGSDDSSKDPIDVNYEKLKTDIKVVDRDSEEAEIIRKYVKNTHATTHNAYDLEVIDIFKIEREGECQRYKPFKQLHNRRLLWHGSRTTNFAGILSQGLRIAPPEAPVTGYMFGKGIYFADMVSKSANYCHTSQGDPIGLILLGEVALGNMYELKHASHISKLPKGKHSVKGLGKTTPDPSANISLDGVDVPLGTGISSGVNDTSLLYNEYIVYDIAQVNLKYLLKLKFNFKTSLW

Compound | Ki [1, 2] | melting point | Ki ([1]; Inhibition Constant Ki (nM)) [nM]
O=C1NCCn2c(-c3cccc(C4OCCO4)c3)nc3cc(F)cc1c32 [Example 68, 1-(3-[1,3]Dioxolan-2-yl-phenyl)-4-fluoro-8,9-dihydro-7H-2,7,9a-triaza-benzo[cd]azulen-6-one] | 5.8 nM | 262 to 264 °C (dec.) | 
CN(C)Cc1cccc(-c2nc3cc(F)cc4c3n2CCNC4=O)c1 [Example 70, 1-(3-Dimethylaminomethyl-phenyl)-4-fluoro-8,9-dihydro-7H-2,7,9a-triaza-benzo[cd]azulen-6-one] | 4.4 nM | 215 to 217 °C (dec.) | 
CN(C)c1cc(-c2nc3cccc4c3n2CCNC4=O)ccn1 [Example 71, 1-(2-Dimethylamino-pyridin-4-yl)-8,9-dihydro-7H-2,7,9a-triaza-benzo[cd]azulen-6-one] | 13 nM | 266 to 268 °C | 
CNCc1cccc(-c2nc3cc(F)cc4c3n2CCNC4=O)c1 [Example 72, 1-(3-Methylaminomethyl-phenyl)-4-fluoro-8,9-dihydro-7H-2,7,9a-triaza-benzo[cd]azulen-6-one] | 3.5 nM | 196 to 198 °C | 
N#Cc1cccc(-c2nc3cccc4c3n2CCNC4=O)c1 [Example 73, 3-(6-Oxo-6,7,8,9-tetrahydro-2,7,9a-triaza-benzo[cd]azulen-1-yl)-benzonitrile] | 10 nM | 283 to 284 °C (dec.) | 
CCOC(=O)c1nc2cccc3c2n1CCNC3=O [Example 74, 6-Oxo-6,7,8,9-tetrahydro-2,7,9a-triaza-benzo[cd]azulen-1-carboxylic Acid Ethyl Ester] | 33 nM | 237 to 239 °C (dec.) | 
O=C1NCCn2c(-c3ccc(Oc4ccccc4)cc3)nc3cccc1c32 [Example 78, 1-(4-Phenoxyphenyl)-8,9-dihydro-7H-2,7,9a-triaza-benzo[cd]azulen-6-one] | 5.2 nM | 259 to 264 °C | 
CCOC(OCC)c1ccc(-c2nc3cc(F)cc4c3n2CCNC4=O)cc1 [Example 79, 1-(4-Diethoxymethyl-phenyl)-4-fluoro-8,9-dihydro-7H-2,7,9a-triaza-benzo[cd]azulen-6-one] | 11 nM | 219 to 221 °C | 
O=C1NCCn2c(-c3ncc[nH]3)nc3cccc1c32 [Example 80, 1-(1H-Imidazol-2-yl)-8,9-dihydro-7H-2.7,9a-triaza-benzo[cd]azulen-6-one] | 9 nM | 227 to 228 °C (dec.) | 
O=C1NCCn2c(-c3ccc(CN4CCCC4)cc3)cc3cccc1c32 [Example 84, 6-(4-Pyrrolidin-1-ylmethyl-phenyl)-3,4-dihydro-2H-[1,4]diazepino[6,7,1-hi]indol-1-one] | 6.5 nM and 7.1 nM | 146 to 148 °C | 
O=Cc1cccc(-c2cc3cccc4c3n2CCNC4=O)c1 [Example 85, 3-(1-Oxo-1,2,3,4-tetrahydro-[1,4]diazepino[6,7,1-hi]indol-6-yl)-benzaldehyde] | 12 nM and 13 nM | 192 to 194 °C | 
CNCc1cccc(-c2cc3cccc4c3n2CCNC4=O)c1 [Example 87, 6-(3-Methylaminomethyl-phenyl)-3,4-dihydro-2H-[1,4]diazepino[6,7,1-hi]indol-1-one] | 6.7 nM and 7 nM | 128 to 130 °C | 
O=C1NCCn2c(-c3cccc(CN4CCCC4)c3)cc3cccc1c32 [Example 88, 6-(3-Pyrrolidin-1-ylmethyl-phenyl)-3,4-dihydro-2H-[1,4]diazepino[6,7,1-hi]indol-1-one] | 12 nM and 13 nM | 158 to 160 °C | 
N#Cc1c(-c2ccc(F)cc2)n2c3c(cccc13)C(=O)NCC2 [Example 91, 6-(4-Fluoro-phenyl)-1-oxo-1,2,3,4-tetrahydro-[1,4]diazepino[6,7,1-hi]indole-7-carbonitrile] | 54 nM | 248 to 250 °C | 
NC(=O)c1c(-c2ccc(F)cc2)n2c3c(cccc13)C(=O)NCC2 [Example 92, 6-(4-Fluoro-phenyl)-1-oxo-1,2,3,4-tetrahydro-[1,4]diazepino[6,7,1-hi]indole-7-carboxylic Acid Amide] | 200 nM | 287 to 289 °C | 
CC(=O)c1c(-c2ccc(F)cc2)n2c3c(cccc13)C(=O)NCC2 [Example 93, 7-Acetyl-6-(4-fluoro-phenyl)-3,4-dihydro-2H-[1,4]diazepino[6,7,1-hi]indol-1-one] |  | 275 to 276 °C | 306
O=C1NCCn2c(-c3nccs3)nc3cccc1c32 [Example 94, 1-(Thiazol-2-yl)-8,9-dihydro-7H-2,7,9a-triaza-benzo[cd]azulen-6-one] | 4.3 nM | 271 to 276 °C | 

Continued, in another order:

Ki [1, 2] | melting point | Compound | Ki ([1]; Inhibition Constant Ki (nM)) [nM]
6.2 nM | 327 to 332 °C (dec.) | O=C1NCCn2c(-c3ccc[nH]3)nc3cccc1c32 [Example 95, 1-(1H-Pyrrol-2-yl)-8,9-dihydro-7H-2,7,9a-triaza-benzo[cd]azulen-6-one] | 
1.6 nM | 273 to 275 °C | O=C1NCCn2c(-c3ccc(CO)cc3)nc3cc(F)cc1c32 [Example 97, 4-Fluoro-1-(hydroxymethyl-phenyl)-8,9-dihydro-7H-2,7,9a-triaza-benzo[cd]azulen-6-one] | 
2.7 nM | 138 to 140 °C | CCOCCNCc1ccc(-c2nc3cccc4c3n2CCNC4=O)cc1 [Example 100, 1-{4-[(2-Ethoxyethylamino)-methyl]-phenyl}-8,9-dihydro-7H-2,7,9a-triaza-benzo[cd]azulen-6-one] | 
5.6 nM | 198 to 202 °C (dec.) | N#CCNCc1ccc(-c2nc3cccc4c3n2CCNC4=O)cc1 [Example 102, [4-(6-Oxo-6,7,8,9-tetrahydro-2,7,9a-triaza-benzo[cd]azulen-1-yl)-benzylamino]-acetonitrile] | 
6.2 nM | 221 to 223 °C | O=C1NCCn2c(-c3ccc(CNCC(F)(F)F)cc3)nc3cccc1c32 [Example 103, 1-4-[(2,2,2-Trifluoro-ethylamino)-methyl]-phenyl-8,9-dihydro-7H-2,7,9a-triaza-benzo[cd]azulen-6-one] | 
4.5 nM | 126 °C (dec.) | C#CCNCc1ccc(-c2nc3cccc4c3n2CCNC4=O)cc1 [Example 104, 1-(4-Prop-2-ynylaminomethyl-phenyl)-8,9-dihydro-7H-2,7,9a-triaza-benzo[cd]azulen-6-one] | 
6.2 nM | 266 °C (dec.) | O=C1NCCn2c(-c3ccc(CN4CCSCC4)cc3)nc3cccc1c32 [Example 105, 1-(4-Thiomorpholin-4-ylmethyl-phenyl)-8,9-dihydro-7H-2,7,9a-triaza-benzo[cd]azulen-6-one] | 
8 nM | 308 to 313 °C | Cc1ccc(-c2nc(-c3nc4cccc5c4n3CCNC5=O)cs2)cc1 [Example 106, 1-(2-p-Tolyl-thiazol-4-yl)-8,9-dihydro-7H-2,7,9a-triaza-benzo[cd]azulen-6-one] | 
25 nM | 297 to 301 °C (dec.) | Cc1ccc(-c2onc3ccc(-c4nc5cccc6c5n4CCNC6=O)cc23)cc1 [Example 107, 1-(3-p-Tolyl-benzo[c]isoxazol-5-yl)-8,9-dihydro-7H-2,7,9a-triaza-benzo[cd]azulen-6-one] | 
6 nM | 280 to 284 °C (dec.) | O=C1NCCn2c(-c3ccc(Sc4ccc(Cl)cc4)nc3)nc3cccc1c32 [Example 108, 1-[6-(4-Chloro-phenylsulfanyl)-pyridin-3-yl]-8,9-dihydro-7H-2,7,9a-triaza-benzo[cd]azulen-6-one] | 
5.5 nM | 281 to 288 °C (dec.) | N#Cc1ccc(Oc2ccc(-c3nc4cccc5c4n3CCNC5=O)cn2)cc1 [Example 109, 4-[5-(6-Oxo-6,7,8,9-tetrahydro-2,7,9a-triaza-benzo[cd]azulen-1-yl)-pyridin-2-yloxy]-benzonitrile] | 
18 nM | 247 to 250 °C | O=C1NCCn2c(C(=O)NCc3ccccc3)nc3cccc1c32 [Example 110, 6-Oxo-6,7,8,9-tetrahydro-2,7,9a-triaza-benzo[cd]azulen-1-carboxylic Acid Benzylamide] | 
5.1 nM | 208 to 214 °C | N#CCCNCc1ccc(-c2nc3cccc4c3n2CCNC4=O)cc1 [Example 111, 3-[4-(6-Oxo-6,7,8,9-tetrahydro-2,7,9a-triaza-benzo[cd]azulen-1-yl)-benzylamino]-propionitrile] | 
18 nM | 277 to 281 °C (dec.) | O=C1NCCn2c(C(F)(F)F)nc3cccc1c32 [Example 112, 1-Trifluoromethyl-8,9-dihydro-7H-2,7,9a-triaza-benzo[cd]azulen-6-one] | 
24 nM | 271 to 274 °C (dec.) | O=C1NCCn2c(C(=O)N3CCOCC3)nc3cccc1c32 [Example 113, 1-(Mompholine-4-carbonyl)-8,9-dihydro-7H-2,7,9a-triaza-benzo[cd]azulen-6-one] | 
9.9 nM | 265 to 269 °C (dec.) | O=C1NCCn2c(-c3ccc(=O)n(Cc4ccccc4)c3)nc3cccc1c32 [Example 114, 1-(1-Benzyl-6-oxo-1,6-dihydro-pyridin-3-yl)-8,9-dihydro-7H-2,7,9a-triaza-benzo[cd]azulen-6-one] | 
116 nM | 311 to 316 °C (dec.) | CN1CCN(C(=O)c2nc3cccc4c3n2CCNC4=O)CC1 [Example 115, 1-(4-Methyl-piperazine-1-carbonyl)-8,9-dihydro-7H-2,7,9a-triaza-benzo[cd]azulen-6-one] | 
5.2 nM | 244 to 248 °C (dec.) | NC(=O)c1ccc(Oc2ccc(-c3nc4cccc5c4n3CCNC5=O)cn2)cc1 [Example 116, 4-[5-(6-Oxo-6,7,8,9-tetrahydro-2,7,9a-triaza-benzo[cd]azulen-1-yl)-pyridin-2-yloxy]-benzamide] | 
9.5 nM | 304 to 306 °C | O=C1NCCn2c(C34CC5CC(CC(C5)C3)C4)nc3cccc1c32 [Example 117, 1-Tricyclo[3.3.1.1]dec-1-yl-8,9-dihydro-7H-2,7,9a-triaza-benzo[cd]azulene-6-one] | 
